Counter-ions that a name gives are not always drawn. Like-named read-outs stand apart in the source and are kept apart here.
Test system: NQO1 specific enzyme activity in BEAS-2B cells
Experiment: BEAS-2B NQO1 MTT assay
Type: cell-based
Conditions: BEAS-2B cells, 48 hours with compound, MTT readout, read-out: EC50 of NQO1 specific activity induction
Method in brief: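 NQO1 specific activity, an NRF2 activation marker, read kinetically as absorbance change at 570 nm for 30 min after MTT cocktail addition to crude lysates of BEAS-2B cells exposed 48 h to compound. Three-parameter fit of Delta OD/min against log concentration gives EC50; lysate portion used for Cell Titer Glo.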

With `CCC1CN(Cc2cc([C@H](CC(=O)O)c3ccc4c(nnn4C)c3C)ccc2C)Cc2ccccc2O1` (stereo partly drawn) [Example 5, (3S)-3-(1,4-Dimethyl-1H-benzo[d][1,2,3]triazol-5-yl)-3-(3-((2-ethyl-2,3-dihydrobenzo[f][1,4]oxazepin-4(5H)-yl)methyl)-4-methylphenyl)propanoic Acid, Trifluoroacetic Acid Salt] the EC50 (Homo sapiens, BEAS-2B, 48 h) was 0.01 to 0.1 µM.

Work on `Cc1ccc([C@@H](CC(=O)O)c2ccc3c(nnn3C)c2C)cc1CN1Cc2ccc(F)cc2OC(C)(C)C1` [Example 59, (R)-3-(1,4-Dimethyl-1H-benzo[d][1,2,3]triazol-5-yl)-3-(3-((8-fluoro-2,2-dimethyl-2,3-dihydrobenzo[f][1,4]oxazepin-4(5H)-yl)methyl)-4-methylphenyl)propanoic acid] yielded an EC50 (Homo sapiens, BEAS-2B, 48 h) of 0.01 to 0.1 µM.

In the case of “3-(1,4-dimethyl-1H-benzo[d][1,2,3]triazol-5-yl)-3-(3-((8-methoxy-4-methyl-4,5-dihydro-1H-benzo[c]azepin-2(3H)-yl)methyl)-4-methylphenyl)propanoic Acid [Example 7]”, the EC50 is reported as 1 to 10 µM.

For `CCn1nnc2c(Cl)c([C@H](c3ccc(C)c(CN4Cc5cccnc5OC(C)(C)C4)c3)[C@@H](C)C(=O)O)ccc21` [Example 194, (2R,3S)-3-(4-Chloro-1-ethyl-1H-benzo[d][1,2,3]triazol-5-yl)-3-(3-((2,2-dimethyl-2,3-dihydropyrido[3,2-f][1,4]oxazepin-4(5H)-yl)methyl)-4-methylphenyl)-2-methylpropanoic acid], the EC50 (Homo sapiens, BEAS-2B, 48 h) was 0.01 to 0.1 µM.

`CCC1CN(Cc2cc(C(CC(=O)O)c3ccc4c(nnn4C)c3C)ccc2C)Cc2ccccc2O1` (stereo not shown) [Example 2, 3-(1,4-Dimethyl-1H-benzo[d][1,2,3]triazol-5-yl)-3-(3-((2-ethyl-2,3-dihydrobenzo[f][1,4]oxazepin-4(5H)-yl)methyl)-4-methylphenyl)propanoic Acid, Trifluoroacetic Acid Salt] showed an EC50 (Homo sapiens, BEAS-2B, 48 h) of 0.1 to 1 µM.

In the case of `Cc1ccc([C@H](CC(=O)O)c2ccc3c(nnn3C)c2C)cc1CN1Cc2cccc(F)c2OC(C)(C)C1` [Example 178, (S)-3-(1,4-Dimethyl-1H-benzo[d][1,2,3]triazol-5-yl)-3-(3-((9-fluoro-2,2-dimethyl-2,3-dihydrobenzo[f][1,4]oxazepin-4(5H)-yl)methyl)-4-methylphenyl)propanoic acid], the EC50 (Homo sapiens, BEAS-2B, 48 h) is reported as 0.01 to 0.1 µM.

`CC[C@@H]1CN(Cc2cc(C(CC(=O)O)c3ccc4c(nnn4C)c3C)ccc2C)Cc2ccncc2O1` (stereo partly drawn) [Example 90, 3-(1,4-Dimethyl-1H-benzo[d][1,2,3]triazol-5-yl)-3-(3-(((R)-2-ethyl-2,3-dihydropyrido[4,3-f][1,4]oxazepin-4(5H)-yl)methyl)-4-methylphenyl)propanoic acid] showed an EC50 (Homo sapiens, BEAS-2B, 48 h) of 0.01 to 0.1 µM.

`CCn1nnc2c(F)c([C@H](c3ccc(C)c(CN4Cc5ncccc5OC(C)(C)C4)c3)[C@@H](C)C(=O)O)ccc21` [Example 190, (2R,3S)-3-(3-((2,2-Dimethyl-2,3-dihydropyrido[2,3-f][1,4]oxazepin-4(5H)-yl)methyl)-4-methylphenyl)-3-(1-ethyl-4-fluoro-1H-benzo[d][1,2,3]triazol-5-yl)-2-methylpropanoic Acid] showed an EC50 (Homo sapiens, BEAS-2B, 48 h) of 0.001 to 0.01 µM.

Work on `Cc1ccc(C(c2ccc3c(nnn3C)c2C)C(C)(C)C(=O)O)cc1Cn1ccnc1CN1C2CCC1CC2` (stereo not shown) [Example 155, 3-(3-((2-(7-Azabicyclo[2.2.1]heptan-7-ylmethyl)-1H-imidazol-1-yl)methyl)-4-methylphenyl)-3-(1,4-dimethyl-1H-benzo[d][1,2,3]triazol-5-yl)-2,2-dimethylpropanoic Acid, Trifluoroacetic Acid Salt] yielded an EC50 (Homo sapiens, BEAS-2B, 48 h) of 0.01 to 0.1 µM.

For `CCn1cc(CCC(CC(=O)O)c2ccc(Cl)c(CN3Cc4cccnc4OC(C)(C)C3)c2)nn1` (stereo not shown) [Example 233, 3-(4-Chloro-3-((2,2-dimethyl-2,3-dihydropyrido[3,2-f][1,4]oxazepin-4(5H)-yl)methyl)phenyl)-5-(1-ethyl-1H-1,2,3-triazol-4-yl)pentanoic Acid], the EC50 (Homo sapiens, BEAS-2B, 48 h) was 1 to 10 µM.

For `Cc1ccc(C(CC(=O)O)c2ccc3c(nnn3C)c2C)cc1Cn1ccnc1CN1CCC(F)(F)CC1` (stereo not shown) [Example 149, 3-(3-((2-((4,4-Difluoropiperidin-1-yl)methyl)-1H-imidazol-1-yl)methyl)-4-methylphenyl)-3-(1,4-dimethyl-1H-benzo[d][1,2,3]triazol-5-yl)propanoic acid], the EC50 (Homo sapiens, BEAS-2B, 48 h) was 0.1 to 1 µM.

“(S)-3-(1,4-Dimethyl-1H- benzo[d][1,2,3]triazol-5- yl)-3-(3-(((R)-2-ethyl-9- fluoro-2,3- dihydrobenzo[f][1,4]oxa- zepin-4(5H)-yl)methyl)-4- methylphenyl)-2,2- dimethylpropanoic acid, trifluoroacetic acid salt [Example 25]” showed an EC50 of under 0.001 µM.

For `CC[C@@H]1CN(Cc2cc(C(c3ccc4c(nnn4C)c3C)C(C)(C)C(=O)O)ccc2C)Cc2c(F)cccc2O1` (stereo partly drawn) [Example 31, 3-(1,4-Dimethyl-1H-benzo[d][1,2,3]triazol-5-yl)-3-(3-(((R)-2-ethyl-6-fluoro-2,3-dihydrobenzo[f][1,4]oxazepin-4(5H)-yl)methyl)-4-methylphenyl)-2,2-dimethylpropanoic Acid, Formic Acid Salt], the EC50 (Homo sapiens, BEAS-2B, 48 h) was under 0.001 µM.

With `CC[C@@H]1CN(Cc2cc([C@H](c3ccc4c(nnn4C)c3C)C(C)(C)C(=O)O)ccc2C)Cc2cnccc2O1` [Example 204, (R)-3-(1,4-Dimethyl-1H-benzo[d][1,2,3]triazol-5-yl)-3-(3-(((R)-2-ethyl-2,3-dihydropyrido[3,4-f][1,4]oxazepin-4(5H)-yl)methyl)-4-methylphenyl)-2,2-dimethylpropanoic Acid, 0.5 Ethanol] the EC50 (Homo sapiens, BEAS-2B, 48 h) was 0.1 to 1 µM.

In the case of `Cc1ccc(C(CC(=O)O)c2ccc3c(nnn3C)c2C)cc1CN1Cc2cc(C#N)ccc2OC(C)(C)C1` (single isomer, unassigned) [Example 171], the EC50 (Homo sapiens, BEAS-2B, 48 h) is reported as 0.01 to 0.1 µM.

In the case of `CCC1CCN(Cc2nccn2Cc2cc([C@@H](c3ccc4c(nnn4CC)c3C)C(C)(C)C(=O)O)ccc2C)CC1` [Example 239, (S)-3-(1-Ethyl-4-methyl-1H-benzo[d][1,2,3]triazol-5-yl)-3-(3-((2-((4-ethylpiperidin-1-yl)methyl)-1H-imidazol-1-yl)methyl)-4-methylphenyl)-2,2-dimethylpropanoic Acid], the EC50 (Homo sapiens, BEAS-2B, 48 h) is reported as under 0.001 µM.

In the case of `Cc1ccc(C(CC(=O)O)c2ccc(F)cc2C)cc1Cn1ccnc1CC1CCCCC1` (stereo not shown) [Example 135, 3-(3-((2-(Cyclohexylmethyl)-1H-imidazol-1-yl)methyl)-4-methylphenyl)-3-(4-fluoro-2-methylphenyl)propanoic Acid], the EC50 (Homo sapiens, BEAS-2B, 48 h) is reported as 0.01 to 0.1 µM.

`CC[C@@H]1CN(Cc2cc([C@H](CC(=O)O)c3ccc4c(nnn4C)c3C)ccc2C)Cc2ccncc2O1` [Example 259, (S)-3-(1,4-dimethyl-1H-benzo[d][1,2,3]triazol-5-yl)-3-(3-(((R)-2-ethyl-2,3-dihydropyrido[4,3-f][1,4]oxazepin-4(5H)-yl)methyl)-4-methylphenyl)propanoic acid] gave an EC50 (Homo sapiens, BEAS-2B, 48 h) of 0.1 to 1 µM.

In the case of `CC[C@@H]1CN(Cc2cc([C@@H](c3ccc4c(nnn4C)c3C)C(C)(C)C(=O)O)ccc2C)Cc2ccccc2O1` [Example 26, (S)-3-(1,4-Dimethyl-1H-benzo[d][1,2,3]triazol-5-yl)-3-(3-(((R)-2-ethyl-2,3-dihydrobenzo[f][1,4]oxa-zepin-4(5H)-yl)methyl)-4-methylphenyl)-2,2-dimethylpropanoic acid, trifluoroacetic acid salt], the EC50 (Homo sapiens, BEAS-2B, 48 h) is reported as 0.001 to 0.01 µM.

— patent publication US10604509B2, “Nrf2 regulators” (GlaxoSmithKline Intellectual Property Development Limited, priority 2015, dated 2020)
